These results are taken from patent US8617906B2, “Identification and screening of triptolide target molecules” (priority 2004, dated 2013).

For one data set, the target named is T1, L-plastin (PG772) (Homo sapiens, UniProt P13796).
T1 construct: Jurkat cells from expanding cultures were labeled with; endogenous in cells; host or cells: Jurkat
As to the kind of experiment: Isolation of proteins binding 3H-triptolide in Jurkat cells. The following applies: 3H-labeled compound incubated with Jurkat cells. The protocol:
Triptolide target molecules were isolated and identified by purification and identification of molecules that bind ^3H-triptolide. Jurkat cells from expanding cultures were labeled with ^3H-triptolide by cultivation at 37° C. with 5% CO2 for a period of time between a few hours and overnight (usually 6-7 hours) and harvested by centrifugation and washing in ice-cold phosphate buffered saline. The cells (usually 1-3×10^6/ml) were generally labeled with ^3H-triptolide to a final concentration of 35 nM (100 μCi/200 ml of medium). […]
(§1) The cells were extracted with M-per buffer (Pierce) and homogenized in presence of a protease inhibitor cocktail, sometimes including other reagents such as deoxyribonuclease (DNase). […] When the extracts components were found not to be sufficiently purified, enriched or reduced in number, 2D gel electrophoresis was employed, followed by fluorography for ^3H-associated radioactivity detection, and MALDI/MS of the corresponding peptides (after proteolysis) and peptide fingerprinting. […]
MALDI-MS peptide fingerprinting analysis identified HSP 90β (PG771) in fraction #4 and L-plastin (PG772) in fraction #9. […] A positive spot on the film (fluorographically positive, therefore positive for ^3H-associated radioactivity) was seen near the 29 kDa protein marker. […]

In data set [1] the target is T2, Protein Disulfide Isomerase (PG775) (Homo sapiens, UniProt P07237).
T2 construct: endogenous in cells; host or cells: Jurkat
T2 sequence (P07237 18-508): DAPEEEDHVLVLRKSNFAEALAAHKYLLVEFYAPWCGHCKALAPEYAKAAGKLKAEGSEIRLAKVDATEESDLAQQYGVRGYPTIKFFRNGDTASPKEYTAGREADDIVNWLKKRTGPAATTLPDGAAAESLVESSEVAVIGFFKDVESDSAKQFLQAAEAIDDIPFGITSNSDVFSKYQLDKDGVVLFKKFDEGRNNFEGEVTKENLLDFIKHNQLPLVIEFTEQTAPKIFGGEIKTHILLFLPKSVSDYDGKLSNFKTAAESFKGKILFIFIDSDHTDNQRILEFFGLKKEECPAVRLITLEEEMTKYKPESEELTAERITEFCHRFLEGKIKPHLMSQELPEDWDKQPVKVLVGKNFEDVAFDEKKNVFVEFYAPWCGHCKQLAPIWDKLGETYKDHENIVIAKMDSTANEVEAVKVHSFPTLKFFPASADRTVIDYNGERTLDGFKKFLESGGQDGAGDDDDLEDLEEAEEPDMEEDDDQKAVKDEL
The description is as above. The settings on record: 3H-labeled compound incubated with Jurkat cells. The protocol: (§2) Triptolide target molecules were isolated and identified by purification and identification of molecules that bind ^3H-triptolide. Jurkat cells from expanding cultures were labeled with ^3H-triptolide by cultivation at 37° C. with 5% CO2 for a period of time between a few hours and overnight (usually 6-7 hours) and harvested by centrifugation and washing in ice-cold phosphate buffered saline. The cells (usually 1-3×10^6/ml) were generally labeled with ^3H-triptolide to a final concentration of 35 nM (100 μCi/200 ml of medium). Collected cell pellets were pooled, and the cells were either extracted and subjected to separation and purification at that time, or were frozen and stored at −20° C. as pellets for extraction and investigation at a later time.
as §1

The target of data set [2] is T3, Thioredoxin Reductase (PG774) (Homo sapiens, UniProt Q16881).
T3 construct: endogenous in cells; host or cells: Jurkat
T3 sequence (Q16881 151-649 limits assumed): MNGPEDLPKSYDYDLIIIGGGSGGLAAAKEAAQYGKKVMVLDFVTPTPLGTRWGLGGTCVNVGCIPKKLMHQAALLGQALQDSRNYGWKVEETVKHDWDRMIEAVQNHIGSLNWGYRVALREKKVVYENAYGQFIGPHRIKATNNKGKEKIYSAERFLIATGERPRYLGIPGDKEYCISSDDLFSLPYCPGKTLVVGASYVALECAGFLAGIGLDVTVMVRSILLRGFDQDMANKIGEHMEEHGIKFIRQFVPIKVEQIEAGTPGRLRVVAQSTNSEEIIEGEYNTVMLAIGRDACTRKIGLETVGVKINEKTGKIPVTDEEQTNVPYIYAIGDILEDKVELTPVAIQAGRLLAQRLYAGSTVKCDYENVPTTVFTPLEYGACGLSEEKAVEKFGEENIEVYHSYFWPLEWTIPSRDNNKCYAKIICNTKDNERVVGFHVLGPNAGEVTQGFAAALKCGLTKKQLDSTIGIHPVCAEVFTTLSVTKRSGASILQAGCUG
The description is as above. The following applies: 3H-labeled compound incubated with Jurkat cells. The procedure: as §2, §1

Data set [3] concerns the target T4, Eukaryotic Translation Elongation Factor 2 (EEF2) (PG786) (Homo sapiens, UniProt P13639).
T4 construct: endogenous in cells; host or cells: Jurkat
Described as above. The settings on record: 3H-labeled Jurkat cell extract. The protocol: as §2, §1

Data set [4] addresses T5, Hypothetical Protein—GI 7705346 (PG790) (Homo sapiens, UniProt Q9Y4R8).
T5 construct: Jurkat cells from expanding cultures were labeled with; endogenous in cells; host or cells: Jurkat
The description is as above. The settings on record: 3H-labeled Jurkat cell extract. The procedure: as §2, §1

The next data set concerns IL-2. The settings on record: cited from earlier work.
In another data set the test system is p53 pathway. The settings on record: cited from earlier work.
Data set [5] concerns human T cell lymphoma (Jurkat) cells. The following applies: cited from earlier work.

T1 sequence (P13796 whole entry): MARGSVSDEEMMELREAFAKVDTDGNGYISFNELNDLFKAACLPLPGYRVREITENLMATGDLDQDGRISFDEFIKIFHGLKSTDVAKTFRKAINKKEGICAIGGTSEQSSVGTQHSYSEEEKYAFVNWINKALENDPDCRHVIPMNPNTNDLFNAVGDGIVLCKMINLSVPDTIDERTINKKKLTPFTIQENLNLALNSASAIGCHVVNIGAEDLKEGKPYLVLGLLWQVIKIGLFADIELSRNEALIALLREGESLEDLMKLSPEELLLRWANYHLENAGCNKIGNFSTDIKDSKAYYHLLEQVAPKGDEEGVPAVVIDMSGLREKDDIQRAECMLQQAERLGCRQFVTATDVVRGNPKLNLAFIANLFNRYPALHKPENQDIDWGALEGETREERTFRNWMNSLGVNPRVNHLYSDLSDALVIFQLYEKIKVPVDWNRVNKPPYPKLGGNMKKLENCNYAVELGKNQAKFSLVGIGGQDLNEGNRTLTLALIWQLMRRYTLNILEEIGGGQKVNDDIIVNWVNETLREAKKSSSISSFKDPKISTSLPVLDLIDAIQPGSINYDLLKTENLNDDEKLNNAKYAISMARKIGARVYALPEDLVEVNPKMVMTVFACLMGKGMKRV
T5 sequence (Q9Y4R8 whole entry): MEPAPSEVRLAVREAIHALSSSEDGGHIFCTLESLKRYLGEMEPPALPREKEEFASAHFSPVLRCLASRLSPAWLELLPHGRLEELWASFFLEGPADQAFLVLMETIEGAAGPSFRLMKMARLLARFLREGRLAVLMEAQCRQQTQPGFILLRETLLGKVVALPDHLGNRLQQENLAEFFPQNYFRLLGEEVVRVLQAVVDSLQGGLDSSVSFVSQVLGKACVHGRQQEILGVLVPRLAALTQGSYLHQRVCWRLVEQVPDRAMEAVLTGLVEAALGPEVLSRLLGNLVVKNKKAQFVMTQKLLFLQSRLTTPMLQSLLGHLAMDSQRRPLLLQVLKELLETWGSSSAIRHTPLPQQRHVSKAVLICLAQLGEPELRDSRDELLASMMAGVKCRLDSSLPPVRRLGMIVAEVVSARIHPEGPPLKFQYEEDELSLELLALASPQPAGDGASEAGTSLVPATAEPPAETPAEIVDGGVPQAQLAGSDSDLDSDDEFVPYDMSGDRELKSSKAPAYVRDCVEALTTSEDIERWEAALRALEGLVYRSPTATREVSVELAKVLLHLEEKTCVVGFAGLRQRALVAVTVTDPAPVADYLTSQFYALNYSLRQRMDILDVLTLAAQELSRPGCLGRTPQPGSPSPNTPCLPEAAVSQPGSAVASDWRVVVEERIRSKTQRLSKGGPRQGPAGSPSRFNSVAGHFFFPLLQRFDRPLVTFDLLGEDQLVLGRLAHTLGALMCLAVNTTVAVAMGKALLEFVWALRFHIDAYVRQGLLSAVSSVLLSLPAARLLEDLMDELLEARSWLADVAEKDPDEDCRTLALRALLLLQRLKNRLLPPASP

For `CC(C)[C@]12O[C@H]1[C@@H]1O[C@]13[C@]1(O[C@H]1C[C@H]1C4=C(CC[C@@]13C)C(=O)OC4)[C@@H]2O` [triptolide], the “3H-associated protein identified as triptolide target: L-plastin” value at L-plastin (PG772) was “identified”. Besides, the “3H-associated protein identified as triptolide target: Protein Disulfide Isomerase” value in data set [1] is reported as “identified”. For the same compound, the “3H-associated protein identified as triptolide target: Thioredoxin Reductase” value in data set [2] is reported as “identified”. In data set [3], the “3H-associated protein identified as triptolide target: EEF2” value was “identified”. The “3H-associated protein identified as triptolide target: GI 7705346” value in data set [4] is given as “identified”. Besides, the “inhibition of IL-2” value with IL-2 is given as “inhibition of IL-2”. Also, the “cell cycle arrest induced by p21 after p53 activation” value in the data set with p53 pathway is recorded as “inhibiting the cell cycle arrest induced by p21 after p53 activation”. For the same compound, the cytotoxicity result in data set [5] is “cytotoxicity in human T cell lymphoma (Jurkat) cells”.
